Literature values as cited in article PMC11923636, “Synthesis, Pharmacological Evaluation, and Molecular Modeling of Phthalimide Derivatives as Monoamine Oxidase and Cholinesterase Dual Inhibitors” (ACS Omega, 2025).

System: MAO-B
Conditions: weak inhibition compared to the standard; ref number not given; cited from earlier work

N-benzylphthalimide [V]
IC50: 10.5 µM
